Assay results taken from ChEMBL document CHEMBL1201862, “PubChem BioAssay data set” (2004).
Each block holds one compound with its values, some of them ahead of it. The source made the active and inactive calls.

Columns and labels:
[1] = molecular target: Glyceraldehyde-3-phosphate dehydrogenase (Homo sapiens, UniProt P04406)
[2] = molecular target: T1, Alkaline phosphatase, tissue-nonspecific isozyme (Homo sapiens, UniProt P05186); assay: potency against alkaline phosphatase TNAP – biochemical, luminescent, dose response, SAR follow-up (AID 1056)
T1 sequence (P05186 whole entry): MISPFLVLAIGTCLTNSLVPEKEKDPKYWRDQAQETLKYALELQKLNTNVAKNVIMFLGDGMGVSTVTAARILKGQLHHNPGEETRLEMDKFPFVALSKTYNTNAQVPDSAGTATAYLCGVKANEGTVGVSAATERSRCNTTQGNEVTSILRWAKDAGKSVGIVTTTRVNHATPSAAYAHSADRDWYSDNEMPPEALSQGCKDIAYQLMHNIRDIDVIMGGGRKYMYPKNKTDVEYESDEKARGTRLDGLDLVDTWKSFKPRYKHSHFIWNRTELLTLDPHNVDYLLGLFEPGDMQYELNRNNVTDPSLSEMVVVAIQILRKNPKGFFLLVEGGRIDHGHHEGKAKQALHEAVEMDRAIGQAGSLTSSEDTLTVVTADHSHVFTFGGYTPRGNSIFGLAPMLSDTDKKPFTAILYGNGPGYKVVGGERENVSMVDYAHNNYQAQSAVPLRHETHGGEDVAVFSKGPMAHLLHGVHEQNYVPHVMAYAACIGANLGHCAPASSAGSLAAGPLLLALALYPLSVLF

[3] = molecular target: T2, Aminopeptidase N (Plasmodium falciparum FcB1/Columbia, UniProt O96935); assay: malaria alanyl aminopeptidase activity blockers – biochemical, fluorogenic H-Leu-NHMec substrate, 1536-well (AID 1445); design: species or system Plasmodium falciparum 3D7, 3D7
T2 sequence (O96935 whole entry): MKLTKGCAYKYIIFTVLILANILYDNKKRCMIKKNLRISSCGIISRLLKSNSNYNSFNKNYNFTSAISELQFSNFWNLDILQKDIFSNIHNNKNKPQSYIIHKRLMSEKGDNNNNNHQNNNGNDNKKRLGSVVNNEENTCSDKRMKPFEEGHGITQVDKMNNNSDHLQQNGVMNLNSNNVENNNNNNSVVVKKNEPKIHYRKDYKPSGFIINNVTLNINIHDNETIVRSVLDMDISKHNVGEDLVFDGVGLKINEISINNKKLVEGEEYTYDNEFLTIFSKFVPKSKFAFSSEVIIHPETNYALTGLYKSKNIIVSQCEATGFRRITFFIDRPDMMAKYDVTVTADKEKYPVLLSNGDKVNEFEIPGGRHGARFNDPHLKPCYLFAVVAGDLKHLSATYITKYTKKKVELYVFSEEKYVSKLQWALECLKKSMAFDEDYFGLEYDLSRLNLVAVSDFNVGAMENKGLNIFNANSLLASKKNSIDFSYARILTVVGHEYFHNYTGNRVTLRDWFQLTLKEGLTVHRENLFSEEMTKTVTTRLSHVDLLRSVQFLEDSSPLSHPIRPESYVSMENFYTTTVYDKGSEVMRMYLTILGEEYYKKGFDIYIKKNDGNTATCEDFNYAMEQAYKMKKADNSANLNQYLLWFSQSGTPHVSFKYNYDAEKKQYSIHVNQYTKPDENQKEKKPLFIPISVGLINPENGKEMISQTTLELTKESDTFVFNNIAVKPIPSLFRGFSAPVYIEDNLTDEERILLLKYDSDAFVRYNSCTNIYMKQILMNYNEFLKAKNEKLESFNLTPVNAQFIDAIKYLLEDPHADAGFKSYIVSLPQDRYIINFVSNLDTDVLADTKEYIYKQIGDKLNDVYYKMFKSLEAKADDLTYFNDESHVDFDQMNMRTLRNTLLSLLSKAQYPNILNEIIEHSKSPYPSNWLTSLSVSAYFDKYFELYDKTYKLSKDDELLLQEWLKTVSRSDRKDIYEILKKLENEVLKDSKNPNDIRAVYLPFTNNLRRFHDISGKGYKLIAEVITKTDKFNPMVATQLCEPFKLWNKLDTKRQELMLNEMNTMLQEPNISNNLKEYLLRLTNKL

[4] = molecular target: T3, Exodeoxyribonuclease V (Escherichia coli (strain K12), UniProt P04993+P07648+P08394); assay: RecBCD inhibition via phage-restricted bacterial growth – absorbance, V66 E. coli, mutant T4 phage, counter-screen for AddAB inhibitor project, dose response (AID 492957); type: functional, cell-based, Escherichia coli str. K-12 substr. MG1655
T3 sequence (P04993 whole entry): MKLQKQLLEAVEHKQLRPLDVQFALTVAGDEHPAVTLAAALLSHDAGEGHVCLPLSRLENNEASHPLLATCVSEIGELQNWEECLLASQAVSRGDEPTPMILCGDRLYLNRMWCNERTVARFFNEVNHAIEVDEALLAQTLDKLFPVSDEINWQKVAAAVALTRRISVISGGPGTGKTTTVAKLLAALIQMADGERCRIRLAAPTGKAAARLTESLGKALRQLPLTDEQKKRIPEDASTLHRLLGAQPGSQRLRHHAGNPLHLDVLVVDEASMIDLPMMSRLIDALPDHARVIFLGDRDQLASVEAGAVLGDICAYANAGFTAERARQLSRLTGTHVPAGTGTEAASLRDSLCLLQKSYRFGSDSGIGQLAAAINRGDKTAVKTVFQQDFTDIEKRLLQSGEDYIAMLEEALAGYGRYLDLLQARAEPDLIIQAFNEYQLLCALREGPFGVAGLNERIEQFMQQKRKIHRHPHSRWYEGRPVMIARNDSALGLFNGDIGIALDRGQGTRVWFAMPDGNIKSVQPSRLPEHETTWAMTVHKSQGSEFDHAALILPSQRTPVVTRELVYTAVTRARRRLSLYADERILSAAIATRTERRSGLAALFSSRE
T3 sequence (P07648 whole entry): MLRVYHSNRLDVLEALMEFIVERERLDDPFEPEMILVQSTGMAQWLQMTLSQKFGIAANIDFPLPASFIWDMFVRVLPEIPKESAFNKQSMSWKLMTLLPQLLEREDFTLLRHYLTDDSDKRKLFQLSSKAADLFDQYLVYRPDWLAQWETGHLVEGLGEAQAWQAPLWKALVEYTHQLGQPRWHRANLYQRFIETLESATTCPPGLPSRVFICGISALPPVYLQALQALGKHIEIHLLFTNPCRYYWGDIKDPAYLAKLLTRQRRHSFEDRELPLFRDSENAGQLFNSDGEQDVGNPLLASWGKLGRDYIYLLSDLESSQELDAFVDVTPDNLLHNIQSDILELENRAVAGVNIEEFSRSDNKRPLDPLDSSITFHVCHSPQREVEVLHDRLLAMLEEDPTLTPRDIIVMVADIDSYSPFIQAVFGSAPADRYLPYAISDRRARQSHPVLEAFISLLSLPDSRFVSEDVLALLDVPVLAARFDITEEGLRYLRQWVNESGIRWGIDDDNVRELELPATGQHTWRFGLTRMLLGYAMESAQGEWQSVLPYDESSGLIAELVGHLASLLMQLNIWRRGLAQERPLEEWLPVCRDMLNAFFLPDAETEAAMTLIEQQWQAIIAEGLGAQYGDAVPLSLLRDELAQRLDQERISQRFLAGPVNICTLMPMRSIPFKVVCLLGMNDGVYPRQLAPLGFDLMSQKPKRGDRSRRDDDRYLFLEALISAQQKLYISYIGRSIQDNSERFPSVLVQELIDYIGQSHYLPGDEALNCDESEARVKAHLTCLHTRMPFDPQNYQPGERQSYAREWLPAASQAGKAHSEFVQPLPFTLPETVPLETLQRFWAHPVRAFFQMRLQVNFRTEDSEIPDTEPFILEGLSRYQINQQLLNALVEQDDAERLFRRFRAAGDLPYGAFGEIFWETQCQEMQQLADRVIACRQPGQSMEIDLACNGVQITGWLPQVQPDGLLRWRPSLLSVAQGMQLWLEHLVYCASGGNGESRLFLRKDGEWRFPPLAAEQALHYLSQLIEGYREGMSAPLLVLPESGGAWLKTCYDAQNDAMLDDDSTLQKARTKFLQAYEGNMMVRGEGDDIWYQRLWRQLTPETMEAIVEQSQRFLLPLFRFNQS
T3 sequence (P08394 whole entry): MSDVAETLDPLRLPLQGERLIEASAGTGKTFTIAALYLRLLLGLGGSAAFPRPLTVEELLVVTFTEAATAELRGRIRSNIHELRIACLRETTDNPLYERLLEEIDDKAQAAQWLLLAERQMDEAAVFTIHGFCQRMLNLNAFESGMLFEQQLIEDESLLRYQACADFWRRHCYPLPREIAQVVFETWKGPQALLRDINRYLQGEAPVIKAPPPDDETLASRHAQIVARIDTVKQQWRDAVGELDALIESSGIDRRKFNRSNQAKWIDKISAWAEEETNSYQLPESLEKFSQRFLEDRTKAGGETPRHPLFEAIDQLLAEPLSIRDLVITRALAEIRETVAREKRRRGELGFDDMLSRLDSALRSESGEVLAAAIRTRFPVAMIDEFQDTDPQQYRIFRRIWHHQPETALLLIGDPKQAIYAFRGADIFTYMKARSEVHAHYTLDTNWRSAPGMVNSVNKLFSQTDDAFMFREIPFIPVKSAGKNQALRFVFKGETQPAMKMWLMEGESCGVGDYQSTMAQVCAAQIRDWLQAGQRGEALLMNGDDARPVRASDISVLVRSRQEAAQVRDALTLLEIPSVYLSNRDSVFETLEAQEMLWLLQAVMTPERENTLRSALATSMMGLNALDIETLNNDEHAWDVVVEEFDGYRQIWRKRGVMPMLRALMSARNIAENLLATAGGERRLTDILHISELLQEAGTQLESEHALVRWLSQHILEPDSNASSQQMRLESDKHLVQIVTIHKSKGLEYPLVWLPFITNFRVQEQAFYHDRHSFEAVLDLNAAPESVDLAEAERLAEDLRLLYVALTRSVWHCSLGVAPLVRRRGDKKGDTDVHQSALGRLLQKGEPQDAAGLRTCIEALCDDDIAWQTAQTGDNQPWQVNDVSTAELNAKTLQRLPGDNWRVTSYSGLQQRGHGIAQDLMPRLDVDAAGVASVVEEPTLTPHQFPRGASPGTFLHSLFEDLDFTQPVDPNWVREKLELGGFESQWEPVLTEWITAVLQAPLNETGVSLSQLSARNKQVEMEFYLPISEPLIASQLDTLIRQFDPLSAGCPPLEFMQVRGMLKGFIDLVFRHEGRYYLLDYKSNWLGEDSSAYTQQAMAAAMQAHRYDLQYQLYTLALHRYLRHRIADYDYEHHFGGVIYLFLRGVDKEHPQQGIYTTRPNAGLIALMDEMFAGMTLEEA

[5] = fluconazole-exposed Candida albicans growth modulators – fluorescence, retest, confirmation (AID 2467); type: functional, cell-based
[6] = NIH-3T3 fibroblast cytotoxicity, dose response, cytotoxicity control, cell-based, fluorescence, Alamar Blue, secondary assay (AID 2327); type: functional;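 also: NIH-3T3 mouse fibroblasts cultured with fluconazole at 8 µg/mL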
[7] = Counterscreen for AddAB inhibitors: absorbance-based bacterial cell-based high throughput dose response assay for inhibitors of bacterial viability. [Related pubchem assays (depositor defined):AID435030, AID449728, AID449731, AID488942, AID488955, AID488956]; type: functional
[8] = molecular target: DNA dC->dU-editing enzyme APOBEC-3A (Homo sapiens, UniProt P31941); assay: Dose Response confirmation of small molecule APOBEC3A DNA Deaminase Inhibitors via a fluorescence-based single-stranded DNA deaminase assay. [Related pubchem assays (depositor defined):AID493011, AID493024]; type: functional
[9] = molecular target: DNA dC->dU-editing enzyme APOBEC-3G (Homo sapiens, UniProt Q9HC16); type: functional;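 also: Dose-response counterscreen measuring inhibition of APOBEC3G DNA deaminase activity, run while confirming APOBEC3A inhibitors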
[10] = molecular target: T4, Heat shock factor protein 1 (Mus musculus, UniProt P38532); assay: enhancement of HSF1-driven luciferase signal – cell-based, NIH3T3, luminescence, dose retest, confirmation (AID 435004); type: functional;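 also: stress induced by proteasome inhibitor MG132 added 30 min after compound; luciferase reporter driven by HSF1 response element in NIH3T3 cells; actives raise luminescence as potentiators of the MG132 stress response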
T4 sequence (P38532 whole entry): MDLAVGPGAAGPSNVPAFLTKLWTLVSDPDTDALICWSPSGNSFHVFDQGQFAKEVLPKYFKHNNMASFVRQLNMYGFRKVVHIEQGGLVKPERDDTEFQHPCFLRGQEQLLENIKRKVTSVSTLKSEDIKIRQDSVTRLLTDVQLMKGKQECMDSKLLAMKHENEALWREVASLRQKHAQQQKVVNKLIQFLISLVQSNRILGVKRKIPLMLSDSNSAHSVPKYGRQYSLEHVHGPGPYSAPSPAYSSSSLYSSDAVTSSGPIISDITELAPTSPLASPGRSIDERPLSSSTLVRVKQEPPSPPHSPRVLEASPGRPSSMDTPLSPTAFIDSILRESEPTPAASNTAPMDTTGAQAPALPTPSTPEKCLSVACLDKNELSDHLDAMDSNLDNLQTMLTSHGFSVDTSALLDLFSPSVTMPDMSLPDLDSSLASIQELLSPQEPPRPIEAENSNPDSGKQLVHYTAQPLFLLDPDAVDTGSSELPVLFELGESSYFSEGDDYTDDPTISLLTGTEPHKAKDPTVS

[11] = molecular target: Trypsin (Sus scrofa, UniProt P00761); assay: trypsin protease activity blockade – biochemical, quenched peptide fluorescence, cherry-pick, selectivity assay for Rce1 protease inhibitor project, dose response (AID 488789)
Sequence of Trypsin (P00761 whole entry): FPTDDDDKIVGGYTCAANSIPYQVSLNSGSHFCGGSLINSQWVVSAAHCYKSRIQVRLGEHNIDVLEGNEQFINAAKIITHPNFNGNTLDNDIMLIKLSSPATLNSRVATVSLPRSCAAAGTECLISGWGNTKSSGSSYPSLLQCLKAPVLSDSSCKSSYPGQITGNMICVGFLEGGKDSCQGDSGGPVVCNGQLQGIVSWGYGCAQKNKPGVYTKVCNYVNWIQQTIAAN

Sequence of DNA dC->dU-editing enzyme APOBEC-3A (P31941 whole entry): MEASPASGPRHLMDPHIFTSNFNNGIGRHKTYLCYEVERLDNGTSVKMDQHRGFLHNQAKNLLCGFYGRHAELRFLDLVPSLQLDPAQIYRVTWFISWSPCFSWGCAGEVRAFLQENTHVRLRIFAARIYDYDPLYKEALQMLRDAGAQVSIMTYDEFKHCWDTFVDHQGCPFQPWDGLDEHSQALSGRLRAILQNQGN
Sequence of DNA dC->dU-editing enzyme APOBEC-3G (Q9HC16 whole entry): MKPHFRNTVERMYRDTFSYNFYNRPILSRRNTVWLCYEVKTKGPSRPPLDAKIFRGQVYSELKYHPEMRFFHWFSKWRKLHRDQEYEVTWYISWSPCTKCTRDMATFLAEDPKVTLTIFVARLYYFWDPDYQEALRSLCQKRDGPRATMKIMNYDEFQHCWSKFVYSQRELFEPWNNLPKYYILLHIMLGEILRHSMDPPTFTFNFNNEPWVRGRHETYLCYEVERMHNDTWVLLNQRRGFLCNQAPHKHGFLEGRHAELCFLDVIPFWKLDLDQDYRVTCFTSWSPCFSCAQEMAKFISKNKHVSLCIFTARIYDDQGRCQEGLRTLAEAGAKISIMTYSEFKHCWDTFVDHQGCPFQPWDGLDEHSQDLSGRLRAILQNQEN
Sequence of Glyceraldehyde-3-phosphate dehydrogenase (P04406 whole entry): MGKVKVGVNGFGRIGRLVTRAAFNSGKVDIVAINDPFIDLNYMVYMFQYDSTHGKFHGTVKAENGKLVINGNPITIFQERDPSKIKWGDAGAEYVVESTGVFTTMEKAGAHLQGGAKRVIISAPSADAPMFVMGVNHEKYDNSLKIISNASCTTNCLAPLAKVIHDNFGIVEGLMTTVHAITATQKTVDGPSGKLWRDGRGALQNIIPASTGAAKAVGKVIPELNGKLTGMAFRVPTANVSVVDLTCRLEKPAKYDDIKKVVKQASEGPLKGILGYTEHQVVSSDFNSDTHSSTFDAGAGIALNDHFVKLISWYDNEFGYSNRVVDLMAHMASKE

IC50 [1]: > 100 µM (not active)
IC50 [2]: > 100 µM (inactive)
SMILES: Cc1ccc(-c2ccc(C(=O)O)[nH]2)cc1

IC50 [3]: 43.3 µM (active)
SMILES: COc1ccc(-c2[nH]nc3c2C2(C(=O)N(CC(=O)O)c4ccccc42)C(C#N)=C(N)O3)cc1OC (configuration not stated)

IC50 [1]: > 100 µM (not active)
IC50 [2]: > 100 µM (inactive)
SMILES: Cc1nc(-c2cccnc2)c[nH]1

SMILES: O=C(NNC(=O)c1cc(-c2ccncc2)nc2ccccc12)c1ccccc1O
IC50 [4]: > 119 µM (inactive)
EC50 [5]: 3.18 µM (active)
EC50 [6]: > 160 µM (inactive)
IC50 [7]: > 119 µM (inactive)

SMILES: CNC(=O)/C(C#N)=C\c1ccc(CNS(=O)(=O)c2ccc(Cl)cc2)o1
IC50 [8]: 3.02 µM (active)
IC50 [9]: 2.81 µM (active)

IC50 [3]: 26.9 µM (active)
EC50 [10]: > 260 µM (inactive)
SMILES: Cc1ccc(S(=O)(=O)NNC(=O)c2sc3nc(C)cc(C)c3c2-n2cccc2)cc1

SMILES: CC(C)C(CO)N1CCN(Cc2ccccc2)CCC1=O (configuration not stated)
IC50 [8]: 8.79 µM (active)
IC50 [9]: 10.1 µM (active)

AC50 [11]: 8.06 µM (active)
SMILES: Cc1cc2nn(-c3cccc4ccccc34)nc2cc1NC(=O)c1cccs1

IC50 [3]: 8.94 µM (active)
SMILES: O=C(O)COc1ccc(/C=N/n2c(COc3ccccc3)nc3ccccc3c2=O)cc1
